These are literature values, as cited in patent US20110066230A1, “Fluorinated GHRH Antagonists” (priority 2009, published 2011).

In data set [1] the target is T1, pituitary receptors (Homo sapiens, UniProt Q02643).
T1 sequence (Q02643 23-423): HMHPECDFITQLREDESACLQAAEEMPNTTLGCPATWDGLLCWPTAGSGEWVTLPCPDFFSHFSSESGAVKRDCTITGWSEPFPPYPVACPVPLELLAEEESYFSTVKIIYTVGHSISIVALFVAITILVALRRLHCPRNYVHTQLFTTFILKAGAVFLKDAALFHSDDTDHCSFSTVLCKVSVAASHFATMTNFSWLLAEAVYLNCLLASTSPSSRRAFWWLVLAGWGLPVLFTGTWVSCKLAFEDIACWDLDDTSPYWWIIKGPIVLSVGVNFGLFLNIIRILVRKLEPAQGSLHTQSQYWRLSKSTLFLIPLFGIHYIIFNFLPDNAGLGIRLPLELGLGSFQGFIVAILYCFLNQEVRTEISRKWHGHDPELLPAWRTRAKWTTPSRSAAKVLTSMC
Conditions: biological activity on the pituitary.

For data set [2], the system named is GH secretion.
For data set [3], the system named is rat anterior pituitary adenylate cyclase.
Setting [4] is: normal subjects, large doses (400 μg/kg).

Turning to “Tyr-Ala-Asp-Ala-Ile^5-Phe-Thr-Asn-Ser-Tyr^10-Arg-Lys-Val-Leu-Gly^15-Gln-Leu-Ser-Ala-Arg^20-Lys-Leu-Leu-Gln-Asp^25-Ile-Met-Ser-Arg^29-NH2 [GH-RH(1-29)]”, in data set [1], the “potency retained relative to native GH-RH” value was not below 50%.

Take “[Ac-Tyr^1,D-Arg^2]hGH-RH(1-29)NH2 [standard antagonist]”: the GH levels entry in data set [2] (a patient with acromegaly) is “reduced GH levels”. Also, in data set [2] (setting [4]), the “nocturnal GH secretion” value was “eliminated nocturnal GH secretion” and the “response to GH-RH” value is recorded as “inhibited the response to GH-RH”. Moreover, the “activation of rat anterior pituitary adenylate cyclase by hGH-RH(1-29)NH2” value in data set [3] is on record as “prevent the activation”.
